Assay results from the supplement of paper PMC10307832.

What was measured:
Assay in all cases: relative viability (nuclei count vs DMSO), 5 days (fraction); higher = more cells survive
PC-14 = system: PC-14
Procedure, shortened: (§1)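 Values are medians from duplicate plates. Each reflects relative viability, defined as the nuclei count of treated wells over that of vehicle wells. Lung cancer cell lines in 1536-well plates were pin-tool dosed one day after seeding with one drug alone or with a fixed anchor-drug dose plus five library-drug doses (not always all listed) in √10 steps, then fixed, stained and imaged at 4× after 5 days.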

NCI-H1993 = system: NCI-H1993
Procedure, shortened: as §1

NCI-H2170 = system: NCI-H2170
Procedure, shortened: as §1

SK-MES-1 = system: SK-MES-1
Procedure, shortened: as §1

CAL-12T = system: CAL-12T
Procedure, shortened: as §1

COR-L23 = system: COR-L23
Procedure, shortened: as §1

HOP-62 = system: HOP-62
Procedure, shortened: as §1

COR-L 105 = system: COR-L 105
Procedure, shortened: as §1

LXF-289 = system: LXF-289
Procedure, shortened: as §1

NCI-H1395 = system: NCI-H1395
Procedure, shortened: as §1

NCI-H2087 = system: NCI-H2087
Procedure, shortened: as §1

NCI-H2023 = system: NCI-H2023
Procedure, shortened: as §1

RERF-LC-KJ = system: RERF-LC-KJ
Procedure, shortened: as §1

NCI-H1651 = system: NCI-H1651
Procedure, shortened: as §1

NCI-H3122 = system: NCI-H3122
Procedure, shortened: as §1

NCI-H1975 = system: NCI-H1975
Procedure, shortened: as §1

NCI-H596 = system: NCI-H596
Procedure, shortened: as §1

NCI-H647 = system: NCI-H647
Procedure, shortened: as §1

A-427 = system: A-427
Procedure, shortened: as §1

EPLC-272H = system: EPLC-272H
Procedure, shortened: as §1

NCI-H2085 = system: NCI-H2085
Procedure, shortened: as §1

O=c1[nH]c2ccccc2n1C1CCN(CCCC(c2ccc(F)cc2)c2ccc(F)cc2)CC1 [Pimozide] + CC1(C)CCC(c2ccc(Cl)cc2)=C(CN2CCN(c3ccc(C(=O)NS(=O)(=O)c4ccc(N[C@H](CCN5CCOCC5)CSc5ccccc5)c(S(=O)(=O)C(F)(F)F)c4)cc3)CC2)C1 [Navitoclax] (partner 0.5 µM)
relative viability (PC-14; first compound 0.08 µM): 1.04
relative viability (PC-14; first compound 0.253 µM): 1
relative viability (PC-14; first compound 0.8 µM): 0.99
relative viability (PC-14; first compound 2.53 µM): 1.09
relative viability (PC-14; first compound 8 µM): 0.967
relative viability (NCI-H1993; first compound 0.08 µM): 0.797
relative viability (NCI-H1993; first compound 0.253 µM): 0.826
relative viability (NCI-H1993; first compound 0.8 µM): 0.91
relative viability (NCI-H1993; first compound 2.53 µM): 0.933
relative viability (NCI-H1993; first compound 8 µM): 0.806
relative viability (NCI-H2170; first compound 0.08 µM): 0.526
relative viability (NCI-H2170; first compound 0.253 µM): 0.703
relative viability (NCI-H2170; first compound 0.8 µM): 0.596
relative viability (NCI-H2170; first compound 2.53 µM): 0.571
relative viability (NCI-H2170; first compound 8 µM): 0.585
relative viability (SK-MES-1; first compound 0.08 µM): 1.31
relative viability (SK-MES-1; first compound 0.253 µM): 1.25
relative viability (SK-MES-1; first compound 0.8 µM): 1.18
relative viability (SK-MES-1; first compound 2.53 µM): 1.21
relative viability (SK-MES-1; first compound 8 µM): 1.08
relative viability (CAL-12T; first compound 0.08 µM): 1.35
relative viability (CAL-12T; first compound 0.253 µM): 1.23
relative viability (CAL-12T; first compound 0.8 µM): 1.23
relative viability (CAL-12T; first compound 2.53 µM): 0.977
relative viability (CAL-12T; first compound 8 µM): 1.08
relative viability (COR-L23; first compound 0.08 µM): 1.02
relative viability (COR-L23; first compound 0.253 µM): 0.923
relative viability (COR-L23; first compound 0.8 µM): 0.913
relative viability (COR-L23; first compound 2.53 µM): 1.14
relative viability (COR-L23; first compound 8 µM): 0.933
relative viability (HOP-62; first compound 0.08 µM): 1.11
relative viability (HOP-62; first compound 0.253 µM): 0.851
relative viability (HOP-62; first compound 0.8 µM): 0.812
relative viability (HOP-62; first compound 2.53 µM): 1.03
relative viability (HOP-62; first compound 8 µM): 0.903
relative viability (COR-L 105; first compound 0.253 µM): 0.601
relative viability (COR-L 105; first compound 0.8 µM): 0.618
relative viability (COR-L 105; first compound 2.53 µM): 0.816
relative viability (COR-L 105; first compound 8 µM): 0.645
relative viability (LXF-289; first compound 0.08 µM): 0.9
relative viability (LXF-289; first compound 0.253 µM): 0.93
relative viability (LXF-289; first compound 0.8 µM): 0.91
relative viability (LXF-289; first compound 2.53 µM): 0.896
relative viability (LXF-289; first compound 8 µM): 0.84
relative viability (NCI-H1395; first compound 0.08 µM): 1.08
relative viability (NCI-H1395; first compound 0.253 µM): 1.15
relative viability (NCI-H1395; first compound 0.8 µM): 1.34
relative viability (NCI-H1395; first compound 2.53 µM): 1.1
relative viability (NCI-H1395; first compound 8 µM): 1.3
relative viability (NCI-H2087; first compound 0.08 µM): 0.972
relative viability (NCI-H2087; first compound 0.253 µM): 0.98
relative viability (NCI-H2087; first compound 0.8 µM): 0.878
relative viability (NCI-H2087; first compound 2.53 µM): 0.997
relative viability (NCI-H2087; first compound 8 µM): 0.931
relative viability (NCI-H2023; first compound 0.08 µM): 1.03
relative viability (NCI-H2023; first compound 0.253 µM): 1.03
relative viability (NCI-H2023; first compound 0.8 µM): 0.988
relative viability (NCI-H2023; first compound 2.53 µM): 0.957
relative viability (NCI-H2023; first compound 8 µM): 0.832
relative viability (RERF-LC-KJ; first compound 0.08 µM): 0.913
relative viability (RERF-LC-KJ; first compound 0.253 µM): 0.855
relative viability (RERF-LC-KJ; first compound 0.8 µM): 0.885
relative viability (RERF-LC-KJ; first compound 2.53 µM): 1.04
relative viability (RERF-LC-KJ; first compound 8 µM): 0.92
relative viability (NCI-H1651; first compound 0.08 µM): 0.953
relative viability (NCI-H1651; first compound 0.253 µM): 1.06
relative viability (NCI-H1651; first compound 0.8 µM): 1.07
relative viability (NCI-H1651; first compound 2.53 µM): 1.11
relative viability (NCI-H1651; first compound 8 µM): 0.992
relative viability (NCI-H3122; first compound 0.08 µM): 0.987
relative viability (NCI-H3122; first compound 0.253 µM): 1.06
relative viability (NCI-H3122; first compound 0.8 µM): 1.04
relative viability (NCI-H3122; first compound 2.53 µM): 0.982
relative viability (NCI-H3122; first compound 8 µM): 0.957
relative viability (NCI-H1975; first compound 0.08 µM): 1.22
relative viability (NCI-H1975; first compound 0.253 µM): 1.06
relative viability (NCI-H1975; first compound 0.8 µM): 1.08
relative viability (NCI-H1975; first compound 2.53 µM): 1.16
relative viability (NCI-H1975; first compound 8 µM): 0.992
relative viability (NCI-H596; first compound 0.08 µM): 0.92
relative viability (NCI-H596; first compound 0.253 µM): 0.963
relative viability (NCI-H596; first compound 0.8 µM): 0.94
relative viability (NCI-H596; first compound 2.53 µM): 0.677
relative viability (NCI-H596; first compound 8 µM): 0.9
relative viability (NCI-H647; first compound 0.08 µM): 1.17
relative viability (NCI-H647; first compound 0.253 µM): 1.14
relative viability (NCI-H647; first compound 0.8 µM): 0.91
relative viability (NCI-H647; first compound 2.53 µM): 0.954
relative viability (NCI-H647; first compound 8 µM): 0.837
relative viability (A-427; first compound 0.08 µM): 0.965
relative viability (A-427; first compound 0.253 µM): 1.01
relative viability (A-427; first compound 0.8 µM): 0.913
relative viability (A-427; first compound 2.53 µM): 0.88
relative viability (A-427; first compound 8 µM): 0.918
relative viability (EPLC-272H; first compound 0.08 µM): 0.979
relative viability (EPLC-272H; first compound 0.253 µM): 1.16
relative viability (EPLC-272H; first compound 0.8 µM): 1.13
relative viability (EPLC-272H; first compound 2.53 µM): 1.03
relative viability (EPLC-272H; first compound 8 µM): 0.967
relative viability (NCI-H2085; first compound 0.08 µM): 1.15
relative viability (NCI-H2085; first compound 0.253 µM): 1.15
relative viability (NCI-H2085; first compound 0.8 µM): 1.11
relative viability (NCI-H2085; first compound 2.53 µM): 1.04
relative viability (NCI-H2085; first compound 8 µM): 1.06
